Source: patent publication US8138158B2, “Compositions and methods for therapy for diseases characterized by defective chloride transport” (Children's Hospital & Research Center at Oakland, priority 1997, dated 2012)

Legend:
Calu-3 airway epithelia = test: Short-circuit current (transepithelial Cl secretion) across Calu-3 airway epithelia, Examples 12-13; type: cell-based, human
Method: Short-circuit current measurement. Calu-3 or CF15 cells were grown as monolayers, mounted in Ussing chambers and short-circuit current (ISC) was recorded as described (Illek, B. & Fischer, H. (1998) Am. J. Physiol. 275, L902-L910). At 20-50 second intervals, transepithelial voltage was clamped from zero to 2 mV and the transepithelial resistance (Rte) was calculated. A serosa-to-mucosa-directed Cl gradient was applied. Serosal Ussing chamber solution contained (in mM): 120 NaCl, 20 NaHCO3, 5 KHCO3, 1.2 NaH2PO4, 5.6 glucose, 2.5 CaCl2, 1.2 MgCl2. In mucosal Ussing chamber solutions, all Cl salts were exchanged for gluconate salts.
Vitamin C activation of CFTR-mediated Cl secretion was studied in Calu-3 cells grown as epithelial monolayers (FIG. 21A). Exposure of the apical membrane to maximal concentrations of L-ascorbic acid stimulated transepithelial Cl currents (ISC) in a sustained fashion to 96±11 μA/cm^2 (n=22). Subsequent addition of forskolin further increased ISC to 141±33 μA/cm^2 (n=9, p=0.029). On average, Cl secretion was stimulated by ascorbate to 68% of the currents elicited by forskolin. The Cl channel blocker diphenylcarboxylate (DPC, 4 mM) was added as a measure for the transcellular Cl current decreasing ISC to 30±4 μA/cm^2. When Cl secretion was first stimulated with forskolin (to 106±23 μA/cm^2, n=4) ascorbate had no significant effect on Ise (at 100 μM: ΔICl=−1.5±3.5 μA/cm^2, n=4, not different from zero, one-sample t test). Half-maximal stimulatory constant averaged 36.5±2.9 μm as determined from transepithelial dose-response experiments.
Furthermore, the response to ascorbate in Na-containing medium was blunted in the presence of phloretin, a known inhibitor of the sodium-dependent vitamin C transporters SVCT1 and SVCT2 (Tsukaguchi, H., Tokui, T., Mackenzie, B., Berger, U. V., Chen, X. Z., Wang, Y., Brubaker, R. F. & Hediger, M. A. (1999) Nature 399, 70-75). […] Molecular expression of SVCT1 and SVCT2 transcripts in Calu-3 cells was verified using RT-PCR and DNA sequencing analysis. For comparison, human ciliated tracheal epithelial cultures (hTE) and a nasal cystic fibrosis airway cell line (CF15) were included. […] The recombinantly expressed SVCT2-EGFP fusion protein was targeted exclusively to the apical membrane pole of CF15 epithelia.

[1] = system: intracellular cAMP levels; test: Cyclic AMP measurements in Calu-3 cells (competitive immunoassay); type: cell-based, human
Method: Cyclic AMP measurements. […] Cellular cAMP levels were measured in non-acetylated samples using a competitive immunoassay for cAMP (R&D systems, Minneapolis, Minn.). The regulatory role of vitamin C on Cl ion channel activity was studied in Calu-3 airway cells which express large amounts of native CFTR as their major Cl conductance ([…]., Widdicombe, J. H. & Wine, J. J. (1994) Am. J. Physiol. 266, […]-[…]). […] Details of the single channel recording are illustrated in FIG. 20C. […] At negative potentials no channel openings were resolved indicating Cl-over-gluconate selectivity. Cyclic AMP is the major intracellular messenger for the activation of CFTR. We tested the possibility that L-ascorbic acid increased intracellular cAMP levels [cAMP], by either turning on cAMP production or preventing cAMP degradation. FIG. 20E compares whole cell cAMP levels of Calu-3 cells challenged with either increasing concentrations of L-ascorbic acid or the cAMP agonist forskolin.

## O=C1O[C@H](C(O)CO)C(O)=C1O (stereo partly drawn) [L-ascorbic acid, L-xyloascorbic acid]
Calu-3 airway epithelia; FIG. 21B
  concentrations causing maximal stimulation: > 300 µM
Calu-3 airway epithelia; Homo sapiens, Calu-3, transepithelial dose-response experiments, read-out: Half-maximal stimulatory constant
  EC50: 36.5 ± 2.9 µM
Calu-3 airway epithelia; apical exposure to maximal concentrations of L-ascorbic acid, n=22
  transepithelial Cl currents (ISC) stimulated to: 96±11 μA/cm^2
Calu-3 airway epithelia; ascorbate at 100 μM after forskolin, n=4, not different from zero
  ΔICl after forskolin prestimulation: −1.5±3.5 μA/cm^2
Calu-3 airway epithelia; no Na on the mucosal side
  ascorbate-stimulated Cl secretion in absence of extracellular Na: significantly reduced
Calu-3 airway epithelia; on average
  Cl secretion stimulated, % of the currents elicited by forskolin: 68%
[1]; 300 μM L-ascorbate + 100 nM forskolin
  cAMP level stimulated by 100 nM forskolin: did not alter the elevated cAMP level
[1]; L-ascorbate from 100 μM to 10 mM, 15 min
  resting intracellular cAMP level: did not result in a detectable increase
